Test results: patent publication US20170356900A1, “TOXICANT ASSAYS FOR COSMETIC PRODUCTS” (priority 2016, published 2017)

System: zebrafish (Danio rerio) AB strain embryos
Experiment: Acute toxicity testing using zebrafish embryos (mortality after 48 hr exposure)
Format: in vivo
Settings: positive control, 3.7 mg/L; 48 hr exposure at 26° C.
Procedure: Extracts prepared as described in Example 1 were tested for acute toxicity using zebrafish (Danio rerio) AB strain embryos. BB cream extracts were diluted into zebrafish embryo culture medium at nominal concentrations of 0.3, 0.6, 1.4, 3.0 and 6.7 g/L. Zebrafish AB strain embryos of 4-128 cell stages were exposed to extract dilutions in a 96-well plate at 1 embryo per well. Each concentration was tested with 20 embryos. Zebrafish embryo culture medium and 3.7 mg/L dichloroaniline were included as negative and positive controls, respectively. After 48 hr exposure at 26° C., zebrafish embryos were observed under a stereomicroscope and fish embryos that were coagulated, tail not detached, and having no heart beat were marked as dead. Mortality rate for each concentration was calculated as the acute toxicity endpoint. The mortality rate for the negative control was 0% and for the positive control was 30%. […] Of the three BB cream extracts, brand C was the most toxic and brand B was the least toxic to zebrafish embryos.

`Nc1ccc(Cl)c(Cl)c1` [dichloroaniline] showed a mortality rate of 30%.
